Values of other authors in patent US20110206693A1, “LYSINE RIBOSWITCH AND COMPOSITIONS AND USES THEREOF” (priority 2008, published 2011).

Tested on: lysine riboswitch
Conditions: for lower affinity than lysine for the RNA: binding to the riboswitch RNA, relative to lysine, Sudarsan 2003 and Blount 2007; for binding / recognition by the lysine riboswitch (in words): qualitative, compared with lysine

SMILES	lower affinity than lysine for the RNA	binding / recognition by the lysine riboswitch (in words)
NCCSC[C@H](N)C(=O)O [AEC, S-(2-aminoethyl)-L-cysteine]	30 fold	–
NCCS(=O)(=O)C[C@H](N)C(=O)O [AESA, L-3-[(2-aminoethyl)-sulfonyl]-alanine]	7 fold	–
NCCC[C@H](N)C(=O)O [L-ornithine]	–	not efficiently bound
NCCCCC[C@H](N)C(=O)O [L-α-homolysine]	–	not efficiently bound
C[N+](C)(C)CCCC[C@H](N)C(=O)[O-] [N^6-trimethyl-L-lysine]	–	precludes efficient recognition
N=C(N)NCCCC[C@H](N)C(=O)O [homoarginine]	–	precludes efficient recognition
